# Test results taken from US20240307397A1, “PHARMACEUTICAL COMPOSITION COMPRISING PI3K AND DNA-PK DUAL INHIBITOR FOR PREVENTING OR TREATING PERIPHERAL T CELL LYMPHOMA” (BORYUNG CORPORATION, priority 2021, published 2024).
# How the values were obtained:
# [1] = system: subjects with advanced hematologic malignancies; assay: Phase Ia dose escalation clinical trial: safety, tolerability, DLT and MTD/RP2D; type: in vivo
# Text: The phase Ia part (dose escalation) of this clinical trial is designed to determine safety, tolerability, and maximum tolerated dose (MTD)/starting dose (RP2D) for clinical phase Ib/II of the test drug in subjects with relapsed/refractory B-cell lymphoma, chronic lymphocytic leukemia (CLL)/small lymphocytic leukemia (SLL) and peripheral T-cell lymphoma (PTCL).
# A method for escalating a dose during the treatment period (phase Ia part) is as follows. At least of 1 and up to 6 subjects may be enrolled in cohorts 1 and 2. 3 to 6 subjects may be enrolled into subsequent cohorts.
# (2) Cohort 3 and all subsequent cohorts will follow the standard 3+3 design. […] If 1 of the 3 subjects experiences a DLT, that dose level will be expanded to 6 subjects (3 additional subjects will be enrolled). If 2 subjects at a given dose level experience a DLT, the maximum tolerated dose (MTD) will have been exceeded and further accrual to the cohort will be terminated. The next lower dose level will be expanded to 6 subjects or if 6 subjects have already been enrolled and no more than 1 of the 6 experienced a DLT, then this lower dose level will be considered the MTD (FIG. 3).
# The dose limiting toxicity (DLT) in this clinical trial may include the followings:
# 1) Assessed by adverse events, vital signs, electrocardiogram (ECG), clinical laboratory tests, physical examination, ECOG performance status up to the last Safety Follow-up Visit, and baseline medical conditions.
# 2) Tolerability assessment includes review of dose interruptions, reductions, and doses administered up to the last Safety Follow-up Visit.
# 3) Determination of the maximum tolerated dose (MTD) and the starting dose (RP2D) for clinical phase Ib/II are based on dose limiting toxicity (DLT) during Cycle 1.
# The number and proportion of subjects experiencing the dose limiting toxicity (DLT) are summarized based on the dose-limiting toxicity evaluable set. […] Estimation of maximum tolerated dose (MTD)/recommended dose for clinical phase Ib/II (RP2D) are based upon the methods for determination of MTD/RP2D provided herein (see 3. Overall design, 2) How to escalate dose of test drug).
# A treatment emergent adverse event (TEAE) is defined as any AE that occurs after the first administration of the test drug through 30 days after the last administration of the test drug, or any event that is present at baseline but worsens in severity. […] All the adverse events and toxicities are graded according to CTCAE (version 5.0). Analysis may include, but is not limited to, the followings: […]
# [2] = system: advanced hematologic malignancies (PTCL, DLBCL, MZL, CTCL-MF); assay: Phase Ia clinical trial: tumor response assessment; type: in vivo, humans
# Method: 1) Tumor response is assessed for both phases la and Ib. The anticancer activity of the test drug is assessed by applying various criteria through imaging tests every two cycles of clinical trials and at the end of therapy (EOT) (optional) (see table 14 for disease assessment criteria below), or for liquid tumors, bone marrow aspirates/biopsies and blood assessments are performed. Tumor response parameters that are assessed include the following: (1) Best overall response: complete response (CR), partial response (PR), stable disease (SD, lasting 12 weeks), or disease progression (DP) Details of the disease assessment criteria and the tools used to determine efficacy parameters are as follows (Table 14). The tumor response (lymphoma (B-cell and T-cell), CLL/SLL, Waldenstrom macroglobulinemia) following administration of the test drug in phases Ia and Ib is assessed using the criteria in table 14. Tumor response parameters vary according to the above applied criteria and may include the followings: The best overall response is defined as the best response across all time points (in the order of CR, PR, SD, and DP) post-treatment. The best overall response (CR, PR, SD, or DP) is summarized by number of subjects and percentages. In the case of best response equal to SD, the minimum duration for SD should be met. For the purpose of calculating an SD rate, the rate will be the percentage (%) of subjects who continue to have SD for at least 12 weeks.
# [3] = Plasma pharmacokinetic analyses in clinical trial subjects (C1D1, C1D15); type: in vivo, humans
# Text: 1) Plasma concentration-time profile of the test drug (days 1 and 15), urine concentration data (day 15), and derived single dose plasma PK and multiple dose plasma and urine PK parameters (if applicable). • Blood samples are collected according to a predetermined schedule to measure a plasma concentration of the test drug (Table 5). In phase Ia clinical trials, entire urine needs to be collected over each dosing interval according to a pre-determined schedule, starting after dose administration (Table 5).
# • Samples for the determination of the test drug in plasma and urine are analyzed using appropriate validated bioanalytical methods. • Pharmacokinetic parameters are derived using noncompartmental methods with Phoenix® WinNonlin® Version 8.0 or higher (Certara, L.P. Princeton, New Jersey, USA) and/or SAS® Version 9.2 or higher (SAS Institute, Inc., Cary, North Carolina, USA). Actual elapsed time from dosing will be used for the final plasma PK parameter calculations. A minimum of 3 quantifiable postdose concentrations will be required for all calculations. • The PK parameters to be determined for plasma concentration of the test drug on day 1 of cycle 1 and day 15 of cycle 1, if calculable, include but not be limited to the following parameters presented table 6.
# Plasma concentrations and PK parameters of the test drug are listed and summarized by dose, cycle, and clinical trial phase using descriptive statistics.
# On the day 1 of cycle 1 (C1D1), plasma samples for pharmacokinetic analyses in clinical trial subjects were obtained before and after administration of the test drug (0.5, 1, 1.5, 2, 3, 4, 6, 9, 12 and 24 hours). As a result of the collected pharmacokinetic analyses, it was confirmed that a maximum plasma concentration after a single dose of 50 mg QD, 100 mg QD and 200 mg QD of the test drug ranged […], and a systemic exposure (based on AUC0-24) ranged from 2760 to 21850 ng*h per mL.
# [4] = system: regulatory T cells (Tregs); assay: Whole blood flow-cytometry pharmacodynamics, regulatory T cells; type: in vivo, humans; conditions: as plasma concentration of the test drug increased (FIG. 6A)
# Method: (§1) Blood samples for pharmacodynamic analyses of the test drug were collected in phase Ia (dose escalation part). Whole blood samples were evaluated by flow-cytometry after coimmunostaining for CD3^+, CD4^+, CD25^+, CD127low and CD8^+. Through this, we tried to observe the effects of the test drug on regulatory T cells (Tregs) and CD8^+ T cells.
# CD8+ T cells = assay: Whole blood flow-cytometry pharmacodynamics, CD8+ T cells; type: in vivo, humans; conditions: as plasma concentration of the test drug increased (FIG. 6B)
# Method: as §1
# [5] = of 11 clinical trial subjects, oral QD
# [6] = 11 of 12 subjects enrolled in phase Ia assessed
# [7] = multiple dosing (C1D15), 50 mg to 200 mg cohort
compound,measurement,setting,value
"C[C@H](Nc1ncnc2[nH]ccc(=O)c12)c1c(Cl)c2cccc(Cl)c2c(=O)n1-c1ccccc1 [test drug, 4-[[(1S)-1-(4,8-dichloro-1-oxo-2-phenyl-3-isoquinolyl)ethyl]amino]-8H-pyrido[2,3-d]pyrimidin-5-one]",dose limiting toxicities (DLTs) observed,"[1]; cohort 4, 325 mg QD",two
same,serious adverse events rated as grades 3 (severe) to 5 (death),"[1]; cohorts 1 to 3 (50, 100, 200 mg QD)",no serious adverse events
same,subjects with TEAEs evaluated to be related to the test drug,"[1]; cohorts 1 to 3 (50, 100, 200 mg QD), 3 of 5 subjects",60.0%
same,subjects with treatment-emergent adverse events (TEAEs),"[1]; cohorts 1 to 3 (50, 100, 200 mg QD), 4 out of 5 subjects",80.0%
same,administration-related deaths,"[1]; cohorts 1 to 3, 5 subjects",no administration-related deaths occurred
same,subjects with TEAE of grade 1 (mild),"[1]; cohorts 1 to 3, 5 subjects",1 subject
same,subjects with TEAE of grade 2 (moderate),"[1]; cohorts 1 to 3, 5 subjects",2 subjects
same,subjects with TEAE of grade 4 (life-threatening),"[1]; cohorts 1 to 3, 5 subjects, thrombocytopenia, not related to the test drug",1 subject
same,dose limiting toxicity (DLT),"[1]; dose range of cohorts 1 to 3 (50, 100, 200 mg QD)",no dose limiting toxicity
same,tolerability,[1]; dose range up to 200 mg QD,excellent
same,dose limiting toxicity (DLT),"[1]; expansion cohort 200 mg QD, 6 subjects",No dose limiting toxicity
same,subjects showing grade 3 skin reaction,[1]; [5],2 subjects
same,subjects showing hepatotoxicity,[1]; [5],3 subjects
same,maximum tolerated dose (MTD),"[1]; oral, 28-day cycle, phase Ia",200 mg QD
same,recommended starting dose (RP2D) for clinical phase Ib/II,[1]; recommended by the Safety Monitoring Committee,200 mg QD
same,"outcome of adverse events (skin reaction, hepatotoxicity)",[1]; upon discontinuation of the test drug,manageable and recovered to grade 0 or 1
same,complete response (CR),[2]; 8 subjects diagnosed with PTCL,1 subject
same,disease control rate (DCR),[2]; 8 subjects diagnosed with PTCL,87.5%
same,disease progression (PD),[2]; 8 subjects diagnosed with PTCL,1 subject
same,partial responses (PR),[2]; 8 subjects diagnosed with PTCL,2 subject
same,complete response (CR),[2]; [6],1 subject
same,disease progression (PD),[2]; [6],2 subjects
same,partial response (PR),[2]; [6],2 subjects
same,activity in peripheral T-cell lymphoma (PTCL) subjects,"[2]; PTCL subjects, phase Ia",preliminary activity
same,dose dependence of exposure concentration,"[3]; C1D1, dose range of 50 mg to 200 mg (FIG. 4)",increased in a dose-dependent manner
same,maximum plasma concentration,"[3]; C1D1, single dose of 50, 100 and 200 mg QD, plasma",≤ 2443 ng/mL
same,increase in exposure based on AUCtau,[3]; [7],~4.97 fold
same,increase in exposure based on Cmax,[3]; [7],~2.92 fold
same,dose dependence of exposure concentration,"[3]; multiple dosing (C1D15), dose range of 50 mg to 200 mg (FIG. 5)",increased in a dose-dependent manner
same,accumulation,"[3]; multiple dosing, dose range of 50 mg to 200 mg",no accumulation observed
same,change of regulatory T cells (Tregs) compared to the baseline value,[4],decreased
same,change of CD8+ T cells compared to the baseline value,CD8+ T cells,increased
